Columns and labels:
[1] = tested on: LXR targets such as ABCA1, FABP4 and GRAMD1A; test: RNA sequencing of LXR targets in macrophage foam cells; assay type: cell-based, human; conditions: during cholesterol efflux; 4 blood donors; FIG. 5
Description: FIG. 5 The effect of rHSP70 on transcript levels of selected LXR targets in primary human macrophage foam cells. Macrophage foam cells from 4 individual blood donors were incubated −/+rHSP70 during cholesterol efflux and RNAs were extracted. RNA sequencing was performed by Illumina NextSeq sequencer. RNASeq results were analysed using “Gene Set Enrichment Analysis”. Selected LXR pathway targets modulated by rHSP70 administration were plotted against their transcript count numbers. Front row: FABP4; middle row: GRAMD1A; back row: ABCA1.
(§1) Effect of rHsp70 on the transcript and protein levels of LXR targets in primary human macrophage foam cellsMacrophage foam cells from 4 individual blood donors were incubated −/+rHSP70 during cholesterol efflux and RNAs were extracted. RNA sequencing was performed by Illumina NextSeq sequencer. RNASeq results were analysed using “Gene Set Enrichment Analysis”.

[2] = tested on: primary human macrophage foam cells; test: Cholesterol efflux from acLDL-loaded macrophage foam cells to complete medium, lipids by TLC; assay type: cell-based
Description: FIG. 1 rHSP70 stimulates the removal of cholesterol from primary human macrophage foam cells. Differentiated human macrophages were loaded with acLDL (50 μg/mL) for 3 days. Cholesterol efflux was performed for 12 h to complete medium in the presence or absence of rHSP70 (20 ug/ml). Lipids were analyzed by TLC. Pooled data from 8 blood donors from 8 independent experiments and three technical replicates, mean±SEM.
FIG. 3 The effect of rHsp70 dose and BMP binding on cholesterol efflux from primary human macrophage foam cells. Macrophages were loaded with acLDL followed by cholesterol efflux to complete medium in the absence or presence of rHSP70 as in FIG. 1. Either wild-type or W90F mutant (mut) rHsp70 was employed at the final concentrations of 20 or 200 μg/mL Pooled data from 2 individual donors with 3 technical replicates, mean±SEM.
Human primary white blood cells, isolated from healthy blood donors were acquired form the Finnish Red Cross (permit number 21/2015). Peripheral blood mononuclear cells (PBMCs) were isolated by Ficoll layering (Boyum, A., 1964) with Ficoll-Paque Premium (GE Healthcare). […]
Cells were harvested in 2% NaCl solution and lipids were extracted as described in Bligh and Dyer (1959). […] The TLC plate was charred and free cholesterol and cholesterol ester bands were quantitated using ImageJ. […]

[3] = tested on: LXR targets (ABCA1, GRAMD1A, FABP4); test: Western blotting of LXR targets in macrophage foam cells; assay type: cell-based, human; conditions: during cholesterol efflux; FIG. 6
From the text: FIG. 6 The effect of rHSP70 on protein levels of selected LXR targets in primary human macrophage foam cells. Cells (as described for FIG. 5) were harvested and equal amounts of protein separated by SDS-PAGE and analyzed by Western blotting. Data are mean±SEM, n=7 blood donors. *: p<0.05; **: p<0.01. (a) ABCA1, (b) GRAMD1A, (c) FABP4.
as §1

[4] = tested on: acid sphingomyelinase (ASMase); conditions: via binding to bismonoacylglycerophosphate (BMP); Mahalka et al, 2014; cited from earlier work
[5] = tested on: primary murine bone marrow macrophage foam cells; test: BODIPY-cholesterol efflux to 6% HDL enriched serum, confocal imaging; assay type: cell-based; conditions: 24 h efflux to 6% HDL enriched serum; FIG. 4
Description: FIG. 4 rHSP70 speeds up BODIPY-cholesterol efflux from primary murine macrophage foam cells. Primary murine bone marrow macrophage foam cells were incubated with BODIPYcholesteryl linoleate-LDL particles. Cholesterol efflux was performed for 24 h to 6% HDL enriched serum in the presence or absence of rHSP70. Images were taken using Leica SP8 scanning confocal microscope at the indicated time points. (a) Total cell BODIPY-cholesterol intensity changes were calculated using ImageJ and data normalized to 0 h. (b) Representative images of BODIPY-cholesterol intensity changes over time. n=60-100 cells/condition. *: p<0.05.
rHSP70 speeds up BODIPY-cholesterol efflux from primarymurine macrophage foam cells. Primary murine bone marrow macrophage foam cells were incubated with BODIPYcholesteryl linoleate-LDL particles. Cholesterol efflux was performed for 24 h to 6% HDL enriched serum in the presence or absence of rHSP70.

ABCA1 [6] = test: ABCA1 mRNA levels by qRT-PCR in macrophage foam cells; assay type: cell-based, human; conditions: during cholesterol loading and efflux; normalized to 18S mRNA; FIG. 2a
Description: (§2) FIG. 2 Effect of rHsp70 on ABCA1 transcript and protein levels in primary human macrophage foam cells. Macrophages were loaded with acLDL followed by cholesterol efflux to complete medium in the absence or presence of rHSP70. (a) The ABCA1 mRNA levels were measured by qRT-PCR. Data are mean±SEM, n=6 blood donors with triplicate measurements. (b) Cells were harvested and equal amounts of protein separated by SDS-PAGE and analyzed by Western blotting using a polyclonal anti-ABCA1 antibody. ProAct staining was used as a loading control. Data are mean±SEM, n=7 blood donors.
(§3) Cells were collected in PBS and centrifuged at 2000 rpm for 10 min at 4° C. Cell pellets were lysed in either RNA lysis buffer or in RIPA buffer containing protease inhibitors for transcript or protein analysis.
Total RNA was isolated using NucleoSpin RNA isolation kit (Macherey-Nagel). 1.5 μg of total RNA was transcribed using SuperScript VILO cDNA synthesis kit (Invitrogen). abca1 primers Fwd 5′-[…], Rev 5′-[…] (Sigma) and 18S primers Fwd 5′-[…], Rev 5′-CCCCGCGAGCACAGA (Sigma) were used for qRT-PCR with Light Cycler 480 SYBER Green I Master Mix (Roche). Reaction mixtures were prepared according to the manufacturer's instructions. Reaction steps: 95° C. 15 min and 40 cycles of 95° C. 15 sec, 60° C. 30 sec and 72° C. 10 sec. […] Relative quantities of mRNAs were normalized to 18S mRNA.

ABCA1 [7] = test: ABCA1 protein levels by Western blotting in macrophage foam cells; assay type: cell-based, human; conditions: during cholesterol loading and efflux; FIG. 2b
Description: as §2, §3
Protein lysates were cleared by centrifugation at 12000 rpm for 10 min at 4° C. Protein concentration was determined using the Bio-Rad protein assay kit. Equal amount of total protein was loaded on 8% SDS-polyacrylamide gel and Western blotting was performed using polyclonal anti-ABCA1 antibody (1:500, Novus Biologicals). The primary antibody was detected with anti-rabbit secondary antibody (1:2000, Sigma). The blots were developed using the Enhanced Chemiluminiscense kit (Amersham). Protein bands were normalized to Proact membrane stain (Amresco). Quantitation of protein bands was performed using ImageJ program.

Substance: rHSP70: His-tagged recombinant wildtype Hsp70 supplied by Orphazyme ApS, Denmark
- transcript levels of LXR targets [1]: major transcriptional re-programming
- cholesterol removal (efflux) from foam cells ([2]; 20 ug/ml, 16 h pretreatment during loading, then 12 h efflux to complete medium (RPMI, 10% FBS), FIG. 1, FIG. 3): significantly enhanced
- whether a higher dosage improves the cholesterol efflux promoting effect ([2]; 200 ug/ml compared with 20 ug/ml, before and during 12 h efflux, FIG. 3): found not to be the case
- protein levels of LXR targets [3]: These changes can also be seen at the protein level
- activity of acid sphingomyelinase (ASMase) [4]: stabilize and enhance
- BODIPY-cholesterol efflux [5]: speeds up
- ABCA1 transcript level (ABCA1 [6]): significant increase
- ABCA1 protein level (ABCA1 [7]): significant increase

Reference: patent US10898476B2, “Heat shock proteins and cholesterol homeostasis” (Orphazyme A/S, priority 2016, dated 2021)
